# Assay results as given in patent publication US11866518B2, “Bicyclic peptide ligands specific for TSLP” (BicycleTx Limited, priority 2020, dated 2024).
# *1 amine or outer side, *2 acyl side, *3 side chain or, on linkers, in order; H or OH if unused. Where a SMILES comes first, the peptide text is derived from it. Bridges are numbered along the chain shown (N, C = ends). TATA = O=C(CC[*:1])N1CN(C(=O)CC[*:2])CN(C(=O)CC[*:3])C1
# Molecular target: T1, TSLP (Homo sapiens, UniProt Q969D9)
# Test: Human TSLP Surface Plasmon Resonance (SPR) binding assay
# Parameters: The resulting construct spCD33-6×HN-TEV-hTSLP(29-159)-Avi; 6xHN tag with TEV site (N, cleaved yes); made in house; host or cells: Expi293F cells
# Settings: biotinylated human TSLP immobilized on streptavidin chip; 20° C.; steady-state or kinetic 1:1 fit; read-out: hTSLP SPR Kd
# T1 sequence (Q969D9 29-159): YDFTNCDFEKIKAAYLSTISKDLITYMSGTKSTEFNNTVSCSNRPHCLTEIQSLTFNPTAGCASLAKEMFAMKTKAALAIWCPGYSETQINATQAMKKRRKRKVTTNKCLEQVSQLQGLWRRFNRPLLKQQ
row,Structure (SMILES),Kd [nM]
1,"CC(=O)N[C@H]1CSCCC(=O)N2CN3CN(C2)C(=O)CCSC[C@H](NC(=O)[C@H](CC(=O)O)NC(=O)[C@H](Cc2ccc(O)cc2)NC(=O)[C@H](CCC(=O)O)NC(=O)[C@H](Cc2c[nH]c4ccccc24)NC(=O)[C@H](Cc2c[nH]cn2)NC(=O)[C@H](Cc2c[nH]c4ccccc24)NC(=O)[C@H](CC(=O)O)NC1=O)C(=O)N[C@@H](Cc1c[nH]c2ccccc12)C(=O)N[C@@H](CC(C)C)C(=O)N[C@@H](CO)C(=O)N[C@H](C(N)=O)CSCCC3=O [Example 218, Ac-(SEQ ID NO: 144)]",2000
2,"CC(C)C[C@@H]1NC(=O)[C@H](Cc2c[nH]c3ccccc23)NC(=O)[C@@H]2CSCCC(=O)N3CN(CN(C3)C(=O)CCSC[C@H](NC(=O)[C@H](CC(=O)O)NC(=O)[C@H](CC(N)=O)NC(=O)[C@H](C)N)C(=O)N[C@@H](C(C)C)C(=O)N[C@@H](Cc3c[nH]c4ccccc34)C(=O)N[C@@H](Cc3c[nH]cn3)C(=O)N[C@@H](Cc3c[nH]c4ccccc34)C(=O)N[C@@H](CCC(=O)O)C(=O)N[C@@H](Cc3ccc(O)cc3)C(=O)N[C@@H](CC(=O)O)C(=O)N2)C(=O)CCSC[C@@H](C(=O)N[C@@H](C)C(N)=O)NC(=O)[C@H](CC(=O)O)NC1=O [Example 220, AND-(SEQ ID NO: 154)-A] (H-ANDCVWHWEYDCWLDCA-NH2; linker 4-12-16 via TATA; N-terminus and C-terminus assumed)",340
3,"CSCC[C@H](NC(=O)[C@H](CC(=O)O)NC(=O)CNC(=O)[C@@H]1CSCCC(=O)N2CN3CN(C2)C(=O)CCSC[C@H](N)C(=O)N[C@@H](CC(=O)O)C(=O)N[C@@H](Cc2c[nH]c4ccccc24)C(=O)N[C@@H](Cc2c[nH]cn2)C(=O)N[C@@H](Cc2c[nH]c4ccccc24)C(=O)N[C@@H](CCC(=O)O)C(=O)N[C@@H](Cc2ccc(O)cc2)C(=O)N[C@@H](CC(=O)O)C(=O)N[C@@H](CSCCC3=O)C(=O)N[C@@H](Cc2c[nH]c3ccccc23)C(=O)N[C@@H](CC(C)C)C(=O)N[C@@H](CO)C(=O)N1)C(=O)N[C@@H](CO)C(=O)N[C@H](C(=O)N[C@@H](CO)C(N)=O)C(C)C [Example 222, (SEQ ID NO: 144)-GDMSVS]",450
4,"CSCC[C@H](NC(=O)[C@H](CCC(=O)O)NC(=O)[C@H](CC(N)=O)NC(=O)[C@H](CC(=O)O)NC(=O)[C@H](Cc1ccc(O)cc1)NC(=O)[C@@H]1CSCCC(=O)N2CN3CN(C2)C(=O)CCSC[C@H](N)C(=O)N[C@@H](CC(=O)O)C(=O)N[C@@H](Cc2c[nH]c4ccccc24)C(=O)N[C@@H](Cc2c[nH]cn2)C(=O)N[C@@H](Cc2c[nH]c4ccccc24)C(=O)N[C@@H](CCC(=O)O)C(=O)N[C@@H](Cc2ccc(O)cc2)C(=O)N[C@@H](CC(=O)O)C(=O)N[C@@H](CSCCC3=O)C(=O)N[C@@H](Cc2c[nH]c3ccccc23)C(=O)N[C@@H](CC(C)C)C(=O)N[C@@H](CO)C(=O)N1)C(=O)N[C@@H](CO)C(N)=O [Example 223, (SEQ ID NO: 144)-YDNEMS]",3000
5,"CC(C)C[C@@H]1NC(=O)[C@H](Cc2c[nH]c3ccccc23)NC(=O)[C@@H]2CSCCC(=O)N3CN(CN(C3)C(=O)CCSC[C@H](N)C(=O)N[C@@H](CC(=O)O)C(=O)N[C@@H](Cc3c[nH]c4ccccc34)C(=O)N[C@@H](Cc3c[nH]cn3)C(=O)N[C@@H](Cc3c[nH]c4ccccc34)C(=O)N[C@@H](CCC(=O)O)C(=O)N[C@@H](Cc3ccc(O)cc3)C(=O)N[C@@H](CC(=O)O)C(=O)N2)C(=O)CCSC[C@@H](C(=O)N[C@@H](C)C(=O)N[C@@H](CC(N)=O)C(=O)N[C@@H](CO)C(=O)N[C@@H](CCC(=O)O)C(=O)N[C@@H](Cc2ccccc2)C(=O)N[C@@H](CCC(=O)O)C(N)=O)NC(=O)[C@H](CO)NC1=O [Example 227, (SEQ ID NO: 144)-ANSEFE]",740
6,"CC(C)C[C@@H]1NC(=O)[C@H](Cc2c[nH]c3ccccc23)NC(=O)[C@@H]2CSCCC(=O)N3CN(CN(C3)C(=O)CCSC[C@H](N)C(=O)N[C@@H](CC(=O)O)C(=O)N[C@@H](Cc3c[nH]c4ccccc34)C(=O)N[C@@H](Cc3c[nH]cn3)C(=O)N[C@@H](Cc3c[nH]c4ccccc34)C(=O)N[C@@H](CCC(=O)O)C(=O)N[C@@H](Cc3ccc(O)cc3)C(=O)N[C@@H](CC(=O)O)C(=O)N2)C(=O)CCSC[C@@H](C(=O)NCC(=O)N[C@@H](C)C(=O)NCC(=O)N[C@@H](CCC(=O)O)C(=O)N[C@@H](CO)C(=O)N[C@@H](CO)C(N)=O)NC(=O)[C@H](CO)NC1=O [Example 228, (SEQ ID NO: 144)-GAGESS]",2300
7,"CC(C)C[C@@H]1NC(=O)[C@H](CO)NC(=O)[C@@H](NC(=O)[C@H](C)N)CSCCC(=O)N2CN3CN(C2)C(=O)CCSC[C@@H](C(=O)N[C@@H](C)C(N)=O)NC(=O)[C@H]([C@@H](C)O)NC(=O)[C@H](Cc2c[nH]c4ccccc24)NC(=O)[C@H](Cc2c[nH]c4ccccc24)NC(=O)[C@H](CC(N)=O)NC(=O)[C@H](Cc2c[nH]cn2)NC(=O)[C@H](CSCCC3=O)NC(=O)[C@H](CO)NC(=O)[C@H](Cc2c[nH]c3ccccc23)NC(=O)[C@@H]2CCCN2C(=O)[C@H](CC(=O)O)NC1=O [Example 229, A-(SEQ ID NO: 156)-A] (H-ACSLDPWSCHNWWTCA-NH2; linker 2-9-15 via TATA; N-terminus and C-terminus assumed)",9900
8,"CC(C)C[C@@H]1NC(=O)[C@H](C)NC(=O)[C@@H](NC(=O)[C@H](C)N)CSCCC(=O)N2CN3CN(C2)C(=O)CCSC[C@H](NC(=O)[C@H](C(C)C)NC(=O)[C@H](Cc2c[nH]c4ccccc24)NC(=O)[C@@H]2CCCN2C(=O)[C@H](CC(=O)O)NC1=O)C(=O)N1CCC[C@H]1C(=O)N[C@@H](CCC(N)=O)C(=O)N[C@@H](Cc1c[nH]c2ccccc12)C(=O)N[C@@H](Cc1c[nH]c2ccccc12)C(=O)N[C@@H](CC(=O)O)C(=O)N[C@H](C(=O)N[C@@H](C)C(N)=O)CSCCC3=O [Example 230, A-(SEQ ID NO: 157)-A] (H-ACALDPWVCPQWWDCA-NH2; linker 2-9-15 via TATA; N-terminus and C-terminus assumed)",960
9,"CC(C)C[C@@H]1NC(=O)[C@@H]2CSCCC(=O)N3CN(CN(C3)C(=O)CCSC[C@@H](C(=O)N[C@@H](C)C(N)=O)NC(=O)[C@H](CCC(=O)O)NC(=O)[C@@H]3CCCN3C(=O)[C@H](CCC(N)=O)NC(=O)[C@H](Cc3ccc(O)cc3)NC(=O)[C@H](CC(C)C)NC1=O)C(=O)CCSC[C@H](NC(=O)[C@H](C)N)C(=O)N[C@@H](CCC(N)=O)C(=O)N[C@@H](CCC(=O)O)C(=O)N[C@@H](Cc1c[nH]cn1)C(=O)N[C@@H](CC(=O)O)C(=O)N[C@@H](Cc1c[nH]c3ccccc13)C(=O)N[C@@H](Cc1ccc(O)cc1)C(=O)N2 [Example 231, A-(SEQ ID NO: 158)-A] (H-ACQEHDWYCLLYQPECA-NH2; linker 2-9-16 via TATA; N-terminus and C-terminus assumed)",1800
10,"CC[C@H](C)[C@@H]1NC(=O)[C@H](Cc2c[nH]c3ccccc23)NC(=O)[C@@H]2CSCCC(=O)N3CN(CN(C3)C(=O)CCSC[C@@H](C(=O)N[C@@H](C)C(N)=O)NC(=O)[C@H](CC(C)C)NC(=O)[C@H]([C@@H](C)O)NC(=O)[C@H](CCCCN)NC(=O)[C@H](Cc3ccccc3)NC1=O)C(=O)CCSC[C@H](NC(=O)[C@H](C)N)C(=O)N[C@@H](CC(=O)O)C(=O)N[C@@H](CCC(=O)O)C(=O)N[C@@H](CC(C)C)C(=O)N[C@@H](CC(=O)O)C(=O)N[C@@H]([C@@H](C)CC)C(=O)N1CCC[C@H]1C(=O)N2 [Example 232, A-(SEQ ID NO: 159)-A] (H-ACDELDIPCWIFKTLCA-NH2; linker 2-9-16 via TATA; N-terminus and C-terminus assumed)",8300
11,CC(=O)N[C@H]1CSCCC(=O)N2CN3CN(C2)C(=O)CCSC[C@@H]2NC(=O)[C@H](CC(=O)O)NC(=O)[C@H](CCC(=O)O)NC(=O)[C@H](CC(C)C)NC(=O)[C@H](CCn4cc(nn4)CC[C@H](NC(=O)[C@H](Cc4c[nH]c5ccccc45)NC2=O)C(=O)NCC(=O)N[C@@H](Cc2ccc(F)cc2)C(=O)N[C@H](C(N)=O)CSCCC3=O)NC(=O)[C@H](CCC(N)=O)NC1=O [Example 249],1200

# Molecular target: T1, TSLP
# Test: Human peripheral blood mononuclear cell assay (TSLP-induced CCL17/TARC)
# Type: cell-based
# Parameters: host or cells: added to human PBMCs from healthy donors
# Settings: human PBMCs; 10 μM peptide; 50 pM TSLP; 24 hours; read-out: CCL17 % Inhibition @ 10 μM, 50 pM TSLP
# Description: Human peripheral blood mononuclear cells (PMBCs) were obtained from heparinized whole blood (healthy donors) by density gradient centrifugation using Lymphoprep (StemCell Technologies, Vancouver, BC) according to the manufacturers instructions. The PBMCs were washed twice with PBS containing 2 mM EDTA and 2% fetal calf serum (FCS) and reconstituted in RPMI containing 10% FCS and 2% PenStrep at a final concentration of 3 million cells/mL. This cell suspension (100 μL) was aliquoted into the wells of a 96-well flat bottom tissue culture plate. 5 μL of bicycle peptide or vehicle (0.1% DMSO in complete medium) was then added and mixed with 5 μL of TSLPvehicle (complete medium). […] The plate was incubated for 30 minutes are rt. 10 μL of this mixture was added to cells and the plate was incubated for 24 hours in a 10% CO2, humidified incubator at 37° C. The plate was centrifuged at 300×g for 5 min and the collected supernatants frozen at −20° C. for subsequent CCL17/TARC analysis.
# CCL17/TARC was determined by MSD (MesoScale Discovery, Maryland, USA) according to the manufacturer's instructions.
row,Structure (SMILES),inhibition at 10 µM [%]
1,"CC(=O)N[C@H]1CSCCC(=O)N2CN3CN(C2)C(=O)CCSC[C@H](NC(=O)[C@H](CC(=O)O)NC(=O)[C@H](CCC(=O)O)NC(=O)[C@H](CC(C)C)NC(=O)[C@H](Cc2c[nH]c4ccccc24)NC(=O)[C@H](CCC(N)=O)NC1=O)C(=O)N[C@@H](Cc1c[nH]c2ccccc12)C(=O)N[C@@H](CCCNC(=N)N)C(=O)NCC(=O)N[C@@H](Cc1ccc(F)cc1)C(=O)N[C@H](C(N)=O)CSCCC3=O [Example 17, Ac-(SEQ ID NO: 15)]",1

# Same assay, conditions: read-out: CCL17 % Inhibition @ 10 μM, […] TSLP
row,Structure (SMILES),inhibition at 10 µM [%]
1,"CC(=O)N[C@H]1CSCCC(=O)N2CN3CN(C2)C(=O)CCSC[C@H](NC(=O)[C@H](CC(=O)O)NC(=O)[C@H](CCC(=O)O)NC(=O)[C@H](CC(C)C)NC(=O)[C@H](Cc2c[nH]c4ccccc24)NC(=O)[C@H](CCC(N)=O)NC1=O)C(=O)N[C@@H](Cc1c[nH]c2ccccc12)C(=O)N[C@@H](CCCNC(=N)N)C(=O)NCC(=O)N[C@@H](Cc1ccc(Cl)cc1)C(=O)N[C@H](C(N)=O)CSCCC3=O [Example 14, Ac-(SEQ ID NO: 12)]",14
